Read-outs that look alike come from different tables or passages of the source. Where a SMILES comes first, the peptide text is derived from it. Bridges are numbered along the chain shown (N, C = ends). Where no end group is shown, it is not given here.
Assays:
[1] = tested on: R. prolixus hindgut; assay: R. prolixus hindgut contraction assay (spontaneous contractions, force transducer); parameters: species or system Rhodnius prolixus; settings: mean of five to six preparations
From the text: Hindguts from female adult R. prolixus were dissected under R. prolixus saline, leaving a small portion of the ventral cuticle attached to the posterior end. The preparation was placed in a shallow trough molded into a Sylgard-coated petri dish. The preparation was secured to the dish by pinning the cuticle using minuten pins. The anterior end of the hindgut was attached to an AE875 miniature force transducer (Aksjeselskapet Mikro-Elektronikk, Norway) using a strand of silk. Muscle activity was monitored on a linear flat-bed chart recorder connected to a force transducer through an amplifier. Isolated hindguts were maintained in 200 μL of saline at room temperature. Working concentrations of Rhopr-MIP-4 or Rhopr-MIP-7 were applied by removing 100 μL of saline and replacing it with the same volume of peptide that yielded final concentrations of 10^−11 to 10^−6 M. The peptides were washed from the preparation using saline between trials. The effects of the peptides on hindgut contractions were monitored over a 5 min time period.
Responses to Rhopr-MIP-4 and Rhopr-MIP-7 were quantified by dividing the frequency of contractions during the second minute after application, by the frequency of contractions during the 1 min interval prior to peptide application.

[2] = molecular target: T1, Drosophila melanogaster sex peptide receptor (Drome-SPR) (Drosophila melanogaster, UniProt Q8SWR3); assay: Functional aequorin-based Drome-SPR assay in CHO-WTA11 cells; type: cell-based; settings: CHO cells coexpressing aequorin, Gα16 and Drosophila SPR; aequorin luminescence; three independent measurements done in triplicate
T1 construct: expressed in transfected cells; host or cells: CHO-WTA11 cells (expressing apoaequorin and Gα16)
T1 sequence (Q8SWR3 1-435): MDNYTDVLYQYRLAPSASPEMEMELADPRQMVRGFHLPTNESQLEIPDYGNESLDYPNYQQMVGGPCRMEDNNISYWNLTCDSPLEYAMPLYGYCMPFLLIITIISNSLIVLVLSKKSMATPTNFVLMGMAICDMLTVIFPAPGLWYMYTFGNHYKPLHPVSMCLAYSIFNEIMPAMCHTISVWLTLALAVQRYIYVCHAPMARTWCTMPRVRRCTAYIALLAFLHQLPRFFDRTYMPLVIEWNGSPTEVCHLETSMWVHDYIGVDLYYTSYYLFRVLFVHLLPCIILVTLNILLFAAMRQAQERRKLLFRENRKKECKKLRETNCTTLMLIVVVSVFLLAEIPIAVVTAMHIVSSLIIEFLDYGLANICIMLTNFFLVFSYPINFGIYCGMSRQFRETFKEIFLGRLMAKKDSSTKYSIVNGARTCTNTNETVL
Experimental: Drome-SPR expression vector (described by Poels et al., [2010]) transfected and mock transfected (negative control) CHO-WTA11 cells (expressing apoaequorin and Gα16) were grown until 90% confluency, detached using PBS with 100 μM EDTA, spun (6 min, 150 g) and resuspended at 5 × 10^6 cells/mL in D-MEM/F-12 without phenol red supplemented with 0.1% BSA. “Coelenterazine h” (Invitrogen) was added to a concentration of 5 μM and the cells were incubated in the dark at room temperature for 3–4 h. After coelenterazine loading, cells were diluted 10-fold and incubated for 30 min. Test compounds were dissolved in 50 μL D-MEM/F-12 supplemented with 0.1% BSA and dispensed in triplicate into the wells of a white 96-well plate. Light emission was recorded (Mithras LB940, Berthold) for 30 s immediately after injection of 50 μL cell suspension into each well. Cells were then lysed by a second injection of 50 μL 0.3% Triton X-100 and monitored during 8 s. Data were collected using MikroWin2000 (Mikrotek Laborsysteme Gmbh).

[3] = molecular target: T1, Drosophila melanogaster sex peptide receptor (Drome-SPR); parameters: method as in Poels et al., [2010]; settings: same aequorin assay; ref Poels et al., [2010]; cited from earlier work
Experimental: The activity profiles of Rhopr-MIP-4 and -7 were tested in the functional aequorin-based Drome-SPR assays (Figure 5).

[4] = tested on: L. migratoria hindgut; settings: ref Schoofs et al., [1991]; cited from earlier work
From the text: As shown in many insects (and as indicated by their name) MIPs are inhibitory of visceral muscle contraction. Thus, in R. prolixus, MIPs inhibit contractions of the hindgut in a dose-dependent manner. This is true for Rhopr-MIP-4 and for Rhopr-MIP-7. […] The thresholds for these Rhopr-MIPs were approximately the same. These threshold concentrations are lower than the threshold concentrations determined for the suppression of hindgut muscle contractions in L. migrator ...

[5] = frequency in second minute after application divided by frequency in 1 min before, read-out: IC50 for frequency of spontaneous hindgut contractions
[6] = isolated hindgut of female adult R. prolixus, saline, room temperature, read-out: IC50 for amplitude of spontaneous hindgut contractions

For `CC(C)C[C@H](NC(=O)[C@H](CO)NC(=O)[C@H](CC(N)=O)NC(=O)[C@H](Cc1c[nH]c2ccccc12)NC(=O)[C@H](C)N)C(=O)N[C@@H](Cc1c[nH]cn1)C(=O)NCC(=O)NCC(=O)N[C@@H](Cc1c[nH]c2ccccc12)C(N)=O` [Rhopr-MIP-7] (H-AWNSLHGGW-NH2), which IC50 [1, 5] is on record?
The IC50 was roughly 20 nM.

What about the IC50 [1, 6] of the same compound?
The IC50 was roughly 100 nM.

And the EC50 [2]?
Its EC50 is 0.59 nM.

With “Drome-SP: Drosophila sex peptide, 36 amino acids with a core W(X8)W and a C-terminal disulfide bridge (WEWPWNRKPTKFPIPSPNPRDKWCRLNLGPAWGGRC; disulfide 24-36 (inferred); UniProt P05623 20-55, looked up)” as the compound, how does the EC50 [3] read?
The EC50 was roughly 15 nM.

For AWQDLNAGW-NH2 [Lom-MIP], which “threshold concentration for suppression of hindgut muscle contractions” value [4] is on record?
Its value is 1.8 nM.

Which IC50 [1, 5] does the source give for `CC(C)C[C@H](NC(=O)[C@H](CC(=O)O)NC(=O)[C@H](CO)NC(=O)[C@H](Cc1c[nH]c2ccccc12)NC(=O)[C@H](C)N)C(=O)N[C@@H](CCC(N)=O)C(=O)N[C@@H](CO)C(=O)N[C@@H](CO)C(=O)NCC(=O)N[C@@H](Cc1c[nH]c2ccccc12)C(N)=O` [Rhopr-MIP-4] (H-AWSDLQSSGW-NH2) here?
Its IC50 is roughly 20 nM.

What about the IC50 [1, 6] of the same compound?
The IC50 was roughly 10 nM.

What about the EC50 [2] of the same compound?
Its EC50 is 53 nM.

From paper PMC3390896, “The Distribution and Physiological Effects of the Myoinhibiting Peptides in the Kissing Bug, Rhodnius Prolixus” (Frontiers in Neuroscience, 2012)
